The series in a line: Hydrolysis of FMS derivative in mouse plasma. The class given is in vitro ADME. Particulars: 100 μM in mouse plasma at 37° C., after 28 hours, RP-HPLC. On the procedure:
Mouse plasma was incubated with 100 μM FMS-6-amino-4-(3-chlorophenylamino)quinazoline at 37° C. Samples were taken and analysed on RP-HPLC as described above in Example 1b) ii). The relative amounts of the two peaks were calculated. Chromatograms of samples taken at 0 (see FIG. 5), 5 (see FIG. 6) and 22 (see FIG. 7) hours show the relative change in the amount of the two compounds (i.e. FMS-6-amino-4-(3-chlorophenylamino)quinazoline vs 6-amino-4-(3-chlorophenylamino)quinazoline) in the plasma after incubation at 37° C.

For the compound `O=C(Nc1ccc2ncnc(Nc3cccc(Cl)c3)c2c1)OCC1c2ccccc2-c2ccc(S(=O)(=O)O)cc21` (stereo not shown) [FMS-6-amino-4-(3-chlorophenylamino)quinazoline], the “Hydrolysis to 6-amino-4-(3-chlorophenylamino)quinazoline in mouse plasma” value is “almost completely hydrolysed”.
